These results are taken from US5134150A, “Inhibition of the 5-lipoxygenase pathway” (priority 1989, dated 1992).

Where two headings read alike, the source gives them in different places.

Test [1] concerns Arachidonic Acid-Induced Inflammation of the Mouse Ear. The test can be described thus: Arachidonic acid-induced mouse ear inflammation. It counts as in vivo, mouse (male Balb/c). Conditions: for inhibition in vivo at 50 mg/kg: Mus musculus, 1 h, Table 7A, read-out: % Inhibition of Ear Swelling. The text has this: (§1) In the following Examples where mice were used, they were male Balb/c mice (20-28 g), and where rats were used, they were male Lewis rats (180-210 g). All mice and rats were obtained from Charles River Breeding Laboratories, Kingston, N.Y. Within a single experiment, mice and rats were sex and age matched.
(§2) The compounds of Formula (I) were used either as the free base or in the appropriate salt form. Levamisole was used as the hydrochloride salt. The compounds were homogenized in 0.5% tragacanth. Compounds were administered by gavage at the indicated dose in a final volume of 10 ml/kg. Nordihydroguaiaretic acid (NDGA) was solubilized in dimethylacetamide and diluted with olive oil for subcutaneous administration.
Arachidonic acid in acetone ([…]) was applied to the inner surface of the left ear. The thickness of both ears was then measured with a dial micrometer one hour after treatment, and the data were expressed as the change in thickness (10^-3 cm) between treated and untreated ears.
Test compounds were given orally in 0.5% tragacanth at the times indicated in the text prior to the topical application of arachidonic acid.
Parenteral administration of compound was accomplished by subcutaneous injection of solution as indicated.

Test [2] relates to 5-lipoxygenase and LTA4 synthetase. Nature of the test: Di-HETE / LTB4 production by high speed supernatant of RBL-1 cells. It counts as biochemical. Conditions: RBL-1 high speed supernatant; Table 9A; read-out: 5-LO IC50 (LTB4 production). The procedure:
For in vitro experiments, compounds were dissolved at appropriate concentrations in ethanol or DMSO (dimethylsulfoxide) (final concentration≤1.0%) and then diluted to final concentrations using the buffers indicated in the text.
The activities of these enzymes in extracts of RBL-1 cells were assayed using the method of Jakschik and Lee, Nature, 287, 51-52 (1980). RBL-1 cells were obtained from the American Type Culture Collection (#CRL 1378) and were grown at 37° C. (5% CO2 in air) in spinner culture in MEM supplemented with 10% heat inactivated fetal calf serum. Harvested cells were washed with 50 mM sodium phosphate buffer, pH 7.0, containing 1 mM EDTA and 0.1% gelatin, resuspended in fresh buffer (5×10^7 cells/ml) and disrupted by nitrogen cavitation using the Parr bomb at 750 psi for 10 min. The broken cell extract was then centrifuged at 10,000× g for 20 minutes (min) and the supernatant centrifuged at 100,000 xIg for 60 min. Aliquots (0.25 mls) of the supernatant were preincubated with or without drugs for 10 min, after which 10 μl CaCl2 (50 mM) was added and the reaction was initiated with 2.5 μl of 2.5 mM arachidonic acid-1-^14 C (final concentration was 25 μM; specific activity 20,000 dpm/nmole). After incubation for 3 min at 37° C., the reaction was terminated by addition of 2 volumes (0.5 ml) ice cold acetone and the sample was allowed to deproteinize on ice for 10 min prior to centrifugation at 1,000× g for 10 min. The deproteinized supernatant was adjusted to pH 3.5 with 2N formic acid and extracted with 2 volumes of ice cold ethyl acetate. The extracted samples were dried under argon, redissolved in ethyl acetate and applied to Whatman LK5D thin layer chromatography (TLC) plates which were developed using the A-9 solvent system [organic phase of ethyl acetate: 2,2,5-trimethylpentane:acetic acid: water (110:50:20:10)] described by Hamberg and Samuelsson, J. Biol. Chem., 241, 257-263 (1966). Arachidonic acid, 5-HETE, LTB4 and PGD2 were quantified with a Berthold LB 2832 autoscanner.
The 5-lipoxygenase and LTA4 synthetase activities were further studied under the following conditions. An additional centrifugation of the RBL-1 supernatant was run at 100,000× g for 60 min, to remove the particulate cyclooxygenase activity. Sample incubation was done under conditions similar to those described above, i.e., 2 mM CaCl2 and […] arachidonic acid-1-^14 C, however, with an incubation time of 5 min at 5° C. Under these conditions, only the 5-lipoxygenase pathway metabolites were detectable. The 5-HETE and di-HETEs were formed at a linear rate, and substantial amounts of the arachidonic acid-1-^14 C substrate were utilized.

Test [3] concerns LTB4 synthesis by peritoneal exudate cells. The test can be described thus: Ex vivo production of LTB4 from peritoneal exudate cells of drug-treated mice. The following applies: for inhibition at 50 mg/kg: Mus musculus, po, 50 mg/kg p.o. It counts as in vivo, mouse. From the text: In the following Examples where mice were used, they were male Balb/c mice (20-28 g), and where rats were used, they were male Lewis rats (180-210 g). All mice and rats were obtained from Charles River Breeding Laboratories, Kingston, N.Y. Within a single experiment, mice and rats were sex and age matched. Auranofin, phenidone, indomethacin, naproxen, and ibuprofen were each used as the free base. The compounds of Formula (I) were used either as the free base or in the appropriate salt form. Levamisole was used as the hydrochloride salt. […] Nordihydroguaiaretic acid (NDGA) was solubilized in dimethylacetamide and diluted with olive oil for subcutaneous administration. Carrageenan-induced peritoneal exudate cells from normal or drug-treated mice were washed and suspended in 2.2 ml of phosphate buffered saline. […] The cell preparation was centrifuged at 1500 rpm for 10 min and the supernatant was extracted using a C-18 silica column. […] A tetrahydrofuran, methanol, water, acetic acid (25:30:45: 0.1) solvent system, adjusted to pH 5.5 with ammonium hydroxide, was used at a flow rate of 0.7 ml/min. Cell derived LTB4 was quantified utilizing standard curves constructed with known amounts of synthetic LTB4.

Test [4] deals with Infiltration of Polymorphonuclear Leukocytes into Sites of Carrageenan-Induced Inflammation. The test can be described thus: Mouse carrageenan peritonitis (PMN infiltration). Format: in vivo, mouse (male Balb/c). Conditions: carrageenan peritonitis, mice.
Description: as §1, §2
Mice were pretreated with either the test compound or vehicle one hour before the intraperitoneal injection of a 1.0% carrageenan suspension in saline (0.2 ml/mouse). Mice were sacrificed by cervical dislocation two hours after injection, and 3.0 ml of phosphate buffered saline, without Ca^++ or Mg^++, was injected into the peritoneum. Following massage, a 2.0 ml aliquot of the lavage fluid was removed, and the total cell count determined on a Coulter counter and differential cell count determined by microscopic examination of Giesma-stained slides.

Take `Fc1ccc(-c2nc3n(c2-c2ccc(F)cc2)CCC3)cc1` [Compound 8]: the inhibition in vivo at 50 mg/kg in test [1] (po, 50 mg/kg p.o.) is 40%. Besides, in test [2], the IC50 (in general, the point on the concentration scale where inhibition reaches its midpoint) is 8 µM. For `CC(C)Cc1ccc(C(C)C(=O)O)cc1` (stereo not drawn) [Ibuprofen, reference compound], the “Mouse ear edema, result in words” value in test [1] (mouse, in vivo) is recorded as “did not exhibit detectable anti-inflammatory activity”.

For `N#Cc1ccc(-c2nc3n(c2-c2ccc(C#N)cc2)CCS3)cc1` [Compound 13, 5,6-bis(4-cyanophenyl)-2,3-dihydroimidazo[2,1-b]thiazole], the inhibition in vivo at 50 mg/kg in test [1] (50 mg/kg s.c. or i.p.) came to 50%. Also, in test [2], the IC50 turned out to be 15 µM. `Fc1ccc(-c2nc3n(c2-c2ccc(F)cc2)CCS3)cc1` [Compound 19]: the inhibition in vivo at 50 mg/kg in test [1] (po, 50 mg/kg p.o.) stood at 34%. The IC50 in test [2] turned out to be 5 µM.

For the compound `CSc1ccc(-c2nc3n(c2-c2ccc(SC)cc2)CCS3)cc1` [Compound 32], in test [2], the IC50 was more than 100 µM. For the compound `CCCNc1ccc(-c2nc3n(c2-c2ccncc2)CCS3)cc1` [Compound 2, 6-(4-(1-propylamino)phenyl)-5-(4-pyridyl)-2,3-dihydroimidazo[2,1-b]thiazole], in test [1] (50 mg/kg s.c. or i.p.), the inhibition in vivo at 50 mg/kg amounted to 23%. Moreover, the IC50 in test [2] worked out at 7 µM. Turning to `CCN(CC)c1ccc(-c2nc3n(c2-c2ccc(N(CC)CC)cc2)CCS3)cc1` [Compound 9, 5,6-bis(4-N,N-diethylaminophenyl)-2,3-dihydroimidazo [2,1-b]thiazole], the inhibition in vivo at 50 mg/kg in test [1] (po, 50 mg/kg p.o.) was determined as 17%. The IC50 in test [2] was 0.16 µM. In the case of `c1cc(-c2nc3n(c2-c2ccc4c(c2)OCO4)CCS3)ccn1` [Compound 7, 6-(4-pyridyl)-5-(3,4-methylenedioxyphenyl)-2,3-dihydroimidazo [2,1-b]thiazole], the inhibition in vivo at 50 mg/kg in test [1] (50 mg/kg s.c. or i.p.) came to 62%. For the same compound, the IC50 in test [2] came out at 10 µM. In the same order, the values of `Fc1ccc(-c2c(-c3ccccn3)nc3n2CCS3)cc1` [Compound 24, 5-(4-fluorophenyl)-6-(2-pyridinyl)-2,3-dihydroimidazo[2,1-b]thiazole] are 69% and 20 µM.

As to `c1cc(-c2c(-c3ccc4c(c3)OCO4)nc3n2CCS3)ccn1` [Compound 5], in test [2], the IC50 is 10 µM. On to `COc1ccc2cc([C@H](C)C(=O)O)ccc2c1` [Naproxen], for which the results for the inhibition at 50 mg/kg in test [3] (Experiment 1), in test [3] (Experiment 2) and in test [3] (Experiment 3) were 0%, 15% and 0%, respectively. For the same compound, the “LTB4 production ex vivo, result in words” value in test [3] (mouse, in vivo) was “inactive”.

Take `CN(C)c1ccc(-c2c(-c3ccc(F)cc3)nc3n2CCS3)cc1` [Compound 10, 5-(4-Dimethylaminophenyl)-6-(4-fluorophenyl)-2,3-dihydroimidazo[2,1-b]-thiazole]: the inhibition in vivo at 50 mg/kg in test [1] (50 mg/kg s.c. or i.p.) stood at 7%. The IC50 in test [2] is 1.5 µM.

As for `c1ccc([C@H]2CN3CCSC3=N2)cc1` [Levamisole], the “PMN infiltration, result in words” value in test [4] is “did not impair inflammatory cell infiltration”.

On to `c1cc(-c2c(-c3ccc(N4CCCC4)cc3)nc3n2CCS3)ccn1` [Compound 25, 5-(4-pyridyl)-6-(4-(pyrrolidin-1-yl)-phenyl)-2,3-dihydroimidazo[2,1-b]thiazole], for which, in test [1] (po, 50 mg/kg p.o.), the inhibition in vivo at 50 mg/kg is 17%. For the same compound, the IC50 in test [2] turned out to be 0.5 µM.

As to `c1cc2c(cc1-c1nc3n(c1-c1ccc4c(c1)OCO4)CCS3)OCO2` [Compound 16], in test [1] (po, 50 mg/kg p.o.), the inhibition in vivo at 50 mg/kg worked out at 32%. Also, the IC50 in test [2] was 1.5 µM.

For the compound `CN(C)c1ccc(-c2nc3n(c2-c2ccc(F)cc2)CCS3)cc1` [Compound 6, 6-(4-dimethylaminophenyl)-5-(4-fluorophenyl)-2,3-dihydroimidazo[2,1-b]thiazole], in test [1] (50 mg/kg s.c. or i.p.), the inhibition in vivo at 50 mg/kg stood at 48%. For the same compound, the IC50 in test [2] worked out at 0.6 µM. In the same order, the values of `c1cc(N2CCCC2)ccc1-c1nc2n(c1-c1ccc(N3CCCC3)cc1)CCS2` [Compound 3, 5,6-bis(4-(1-pyrrolidinyl)phenyl)-2,3-dihydroimidazo[2,1-b] thiazole] are 44% and 0.1 µM. For `FC(F)(F)c1ccc(-c2nc3n(c2-c2ccc(C(F)(F)F)cc2)CCS3)cc1` [Compound 15], in test [2], the IC50 stood at 10 µM. For the compound `c1cc(N2CCCCC2)ccc1-c1nc2n(c1-c1ccc(N3CCCCC3)cc1)CCS2` [Compound 4, 5,6-bis(4-(1-piperidinyl)phenyl)-2,3-dihydroimidazo[2,1-b] thiazole], in test [1] (50 mg/kg s.c. or i.p.), the inhibition in vivo at 50 mg/kg was found to be 22%. The IC50 in test [2] was found to be 0.6 µM. In the same order, the values of `COc1ccc(-c2nc3n(c2-c2ccc(OC)cc2)CCCS3)cc1` [Compound 20] are 47% and 5.6 µM. In the same order, the values of `COc1ccc(-c2nc3n(c2-c2ccc(F)cc2)CCS3)cc1` [Compound 14] are 64% and 0.6 µM.

For the compound `COc1ccc(-c2nc3n(c2-c2ccc(OC)cc2)CCS3)cc1` [Compound 21], the IC50 in test [2] worked out at 2.8 µM.

Turning to `Fc1ccc(-c2nc3n(c2-c2ccccn2)CCS3)cc1` [Compound 23, 5-(2-pyridinyl)-6-(4-fluorophenyl)-2,3-dihydroimidazo[2,1-b]thiazole], in test [1] (50 mg/kg s.c. or i.p.), the inhibition in vivo at 50 mg/kg was 65%. The IC50 in test [2] was found to be 42 µM.

For `c1cc(-c2nc3n(c2-c2ccncc2)CCS3)ccn1` [Compound 11, 5,6-Bis(4-pyridyl)-2,3-dihydroimidazo(2,1-b) thiazole], the inhibition in vivo at 50 mg/kg in test [1] (50 mg/kg s.c. or i.p.) was 29%. Further, the IC50 in test [2] was found to be 33 µM. With `O=S1(=O)CCn2c1nc(-c1ccc(F)cc1)c2-c1ccc(F)cc1` [Compound 31], in test [2], the IC50 is less than 33 µM. In the case of `COc1ccc(-c2nc3n(c2-c2ccc(OC)cc2)CCC3)cc1` [Compound 22], the inhibition in vivo at 50 mg/kg in test [1] (50 mg/kg s.c. or i.p.) came out at 15%. Consider `[O-][S+]1CCn2c1nc(-c1ccc(F)cc1)c2-c1ccc(F)cc1` (stereo not drawn) [Compound 30], for which the IC50 in test [2] turned out to be 60 µM. Still for that read-out and setting: next, `CC(=O)Nc1ccc(-c2nc3n(c2-c2ccncc2)CCS3)cc1` [Compound 38, 5-(4-pyridyl)-6-(4-acetamidophenyl)-2,3-dihydroimidazo (2,1-b)thiazole]: 30 µM.
